# Laboratory results reported in PMC4695662 (BioMed Research International, 2015).
# Tests used:
# Oat1 and Oat3 [1] = assay: PAH pharmacokinetic studies in mice sera after oral treatment with investigational samples; settings: in words, versus control
# Protocol: All mice were given standard mice chows and pure water ad libitum and housed at 20~26°C.
# On the experiment day, 60 min after the last administration of investigational samples, all mice were single i.v. PAH (30 mg/kg B.W., aqueous solution), respectively, according to the protocol of Bertani et al. [16] and blood samples were collected from 10 mice/group by euthanization in each time point at 1.0, 2.5, 5.0, 7.5, 10.0, 20.0, and 30.0 min after PAH injection. Blood samples were centrifuged at 2000 ×g for 5 min. The obtained sera were stored at −20°C until measurement.
# The concentration of PAH in sera was determined according to Saikan and Kiguchi [19] method. The sera concentration versus time curve for PAH, for each individual animal, was fitted with PK software DAS 2.0. The data were fitted to a biexponential curve. The choice of the best fit was based on the determination of coefficient values (R ^2) and LSD test [20]. All fits should have R ^2 values > 0.98. […] Concentration of PAH in serum was measured using the method described by Di Giusto et al. [21].
# Oat1 and Oat3 [2] = assay: PAH uptake by mice renal slices after treatment; format: in vivo; settings: 2 mM PAH, 20 min, 37°C, slices from mice treated twice a day for five days; in words
# Protocol: The uptake of PAH by mice renal slices was investigated using the procedures described by Henderson and Lindup. Briefly, mice were executed, and the kidneys were immediately harvested, decapsulated, and placed in an ice-cold oxygenated rinse PBS (pH 7.4). Renal slices (weight 10–20 mg/slice) were cut freehand with Gillette valet strip blades to about 0.2 inches in length (Sabre International Products Ltd., Reading, UK). Slices of one kidney were preincubated for 5 min at 37°C and incubated in a 12-well plate with 1 mL of oxygenated PAH-buffer which consisted of 2 mM PAH, 97 mM NaCl, 40 mM KCl, 0.74 mM CaCl2, and 7.5 mM sodium phosphate-chloride buffer in each well. The uptake study was carried out at 37°C in the shaking bath. After incubating for 20 min, each slice was rapidly removed from the PAH-buffer, immediately inactivated the proteins with trichloroacetic acid, was washed in ice-cold saline, was blotted on filter paper, was weighed, and then was homogenized at a ratio of 3 mL/g wet weight. The following operations were the same as described in Section 2.6.
# Oat3 mRNA = Oat3 mRNA expression in kidney by real-time PCR; format: in vivo; settings: renal cortex of mice
# Protocol: (§1) Total RNA was extracted using Trizol reagent from renal cortical tissues according to the manufacturer's instructions and RNA concentration and purity were evaluated by measuring the ratio of A260 nm/A280 nm. First-strand cDNA was generated by adding 1 μg total RNA; 2 μL 5x gDNA Eraser Buffer; 1 μL gDNA Eraser; 5 μL RNase Free dH2O (step 1: 42°C, 2 min for genomic DNA elimination reaction); […]; 1 μL Prime Script RT Enzyme Mix I; 1 μL RT Primer Mix; 4 μL RNase Free dH2O; and 10 μL reaction solution from step 1, which were used to reach a total reaction volume of 20 μL. The condition of reverse-transcription (RT) reaction was as follows, 15 min at 37°C and 85°C for 5 s, and stored at 4°C. […]
# (§2) The real-time quantitative PCR was conducted in ABI 7500 (Applied Biosystems, USA) and the cycling program was set at 1 cycle of predenaturation at 95°C for 30 s and then 40 cycles at 95°C for 15 s, 56°C for 30 s, and 72°C for 31 s. […] Quantification of the target cDNAs in all samples was normalized to GAPDH […] (Cttarget − CtGAPDH = ΔCt) and the difference in expression for each target cDNA in the investigated groups was expressed to the amount in the water control group (ΔCttreated − ΔCtcontrol = ΔΔCt). Fold changes in target gene expression were determined by taking 2 to the power of this number (2^−ΔΔCt).
# Oat1 and Oat3 [3] = assay: Accumulation of PAH in kidney tissue; format: in vivo, mice; settings: all sampling times after i.v. PAH, compared with C-1 (p < 0.01); in words
# Protocol: The mice renal homogenate was prepared by Shihana et al. protocol. Each right kidney was cut into small pieces, which were put into a glass homogenizing tube containing PBS (200 mM sucrose, 137 mM NaCl, 2.7 mM KCl, 10 mM Na2HPO4, and 2 mM NaH2PO4; pH 7.4) at a ratio of 8 mL/g wet weight and then were homogenized with a motor-driven Teflon pestle (1000 rpm/min) and spun down for 30 min at 20,000 ×g. The supernatant was isolated and then stored at −20°C until determination. The kidney homogenates were prepared from each group which was removed at 1, 5, 10, 20, and 30 min after i.v. PAH. Protein content of kidney homogenates was quantified using the Lowry Folin phenol reagent (Nanjing Jiancheng Bioengineering Institute, Ltd., China, Lot. 130918). The concentrations of PAH in kidney homogenate were determined the same as that in the sera.
# Oat1 mRNA = Oat1 mRNA expression in kidney by real-time PCR; format: in vivo; settings: renal cortex of mice
# Protocol: as §1, §2
smiles,measurement,setting,value
[Cl][Hg][Cl] [HgCl2],Change of area under the curve (AUC0–30 min) of serum PAH,Oat1 and Oat3 [1],significant increase
same,Change of total volume of distribution (VdT) of serum PAH,Oat1 and Oat3 [1],obvious decrease
same,Active uptake of PAH by renal slices,Oat1 and Oat3 [2],interfered with the PAH uptake
same,Decrease in Oat3 mRNA level,Oat3 mRNA,40%
same,PAH accumulations in the kidneys,Oat1 and Oat3 [3],observably increased
same,Reduction of Oat1 mRNA expression,Oat1 mRNA,40%
